Data taken from DBAASP.
≈ marks a conversion by molar mass, not a printed value. Values belong to the compound of their own block, whether it stands above or below them.

Key:
Assay in all cases: ≥ marks a high value that may be exact or a test limit, other limits are often not marked, values filed in µg/mL are converted to µM
[1] = system: Escherichia coli PCM 2057
[2] = system: Staphylococcus aureus PCM 1944
[3] = system: Corynebacterium glutamicum ATCC 13032
Bacillus megaterium = system: Bacillus megaterium
[4] = system: Candida albicans ATCC 10231
Aureobasidium pullulans = system: Aureobasidium pullulans
[5] = system: Escherichia coli ATCC 25922
[6] = system: Bacillus subtilis ATCC 23857
[7] = system: Staphylococcus aureus ATCC 9144
[8] = system: Pseudomonas aeruginosa ATCC 27853
Micrococcus luteus = system: Micrococcus luteus
[9] = system: Salmonella enterica subsp. enterica serovar Typhimurium ATCC 700408
[10] = system: Escherichia coli DSM 1103
[11] = system: Klebsiella pneumoniae DSM 681
[12] = system: Klebsiella pneumoniae K6 ATCC 700603
Escherichia coli BL21AI = system: Escherichia coli BL21AI
Escherichia coli D31 = system: Escherichia coli D31
[13] = system: Micrococcus luteus ATCC 10240
Escherichia coli DC2 = system: Escherichia coli DC2
[14] = system: Pseudomonas aeruginosa 73
[15] = system: Klebsiella pneumoniae ATCC 700603
[16] = system: Staphylococcus aureus 113
[17] = system: Acinetobacter baumannii 97830
[18] = system: Pseudomonas aeruginosa ATCC 9027
[19] = system: Acinetobacter baumannii 9931
[20] = system: Staphylococcus aureus ATCC 29213
Staphylococcus aureus 75 = system: Staphylococcus aureus 75
Escherichia coli 804 = system: Escherichia coli 804
[21] = system: Acinetobacter baumannii ATCC 19606
[22] = system: Pseudomonas aeruginosa 50
Escherichia coli 780 = system: Escherichia coli 780
[23] = system: Staphylococcus epidermidis ATCC 12228

MIC [3]: 5.56 µM (≈ 7.79 µg/mL)
MIC (Bacillus megaterium): 2.78 µM (≈ 3.9 µg/mL)
MIC [4]: 11.1 µM (≈ 15.6 µg/mL)
MIC (Aureobasidium pullulans): 5.56 µM (≈ 7.79 µg/mL)
MIC [5]: 44.5 µM (≈ 62.5 µg/mL)
MIC [6]: 5.56 µM (≈ 7.79 µg/mL)
MIC [7]: ≥ 89.1 µM
MIC [8]: 89.1 µM (≈ 125 µg/mL)
MIC (Micrococcus luteus): 11.1 µM (≈ 15.6 µg/mL)
SMILES: C[C@H](NC(=O)[C@H](CCCCN)NC(=O)[C@H](Cc1c[nH]c2ccccc12)NC(=O)[C@H](Cc1c[nH]c2ccccc12)NC(=O)[C@H](Cc1c[nH]c2ccccc12)NC(=O)[C@H](Cc1c[nH]c2ccccc12)NC(=O)[C@H](CCCCN)NC(=O)[C@H](CCCCN)NC(=O)CN)C(=O)N[C@@H](CCCCN)C(N)=O [GKKWWWWKAK]

MIC [9]: 0.936 µM (≈ 2 µg/mL)
MIC [10]: 0.459 µM (≈ 0.98 µg/mL)
MIC [11]: 7.31 µM (≈ 15.6 µg/mL)
MIC [12]: 3.74 µM (≈ 8 µg/mL)
MIC (Escherichia coli BL21AI): 0.229 µM (≈ 0.49 µg/mL)
MIC (Escherichia coli D31): 30 µM (≈ 64 µg/mL)
MIC [13]: 0.459 µM (≈ 0.98 µg/mL)
MIC (Escherichia coli DC2): 3.66 µM (≈ 7.81 µg/mL)
SMILES: CC[C@H](C)[C@H](NC(=O)[C@H](CCCN=C(N)N)NC(=O)[C@@H]1CCCN1C(=O)[C@H](Cc1cnc[nH]1)NC(=O)[C@@H]1CCCN1C(=O)[C@@H]1CCCN1C(=O)[C@H](CCCN=C(N)N)NC(=O)[C@@H]1CCCN1C(=O)[C@H](CCCN=C(N)N)NC(=O)[C@@H]1CCCN1C(=O)[C@@H](NC(=O)[C@H](Cc1ccc(O)cc1)NC(=O)[C@@H](NC(=O)[C@@H]1CCCN1C(=O)[C@H](CCCN=C(N)N)NC(=O)[C@H](CC(N)=O)NC(=O)[C@H](CC(N)=O)NC(=O)CN)C(C)C)[C@@H](C)CC)C(N)=O [GNNRPVYIPRPRPPHPRI]

MIC [14]: ≥ 32 µM
MIC [15]: 8 µM (≈ 10.1 µg/mL)
MIC [16]: 4 µM (≈ 5.04 µg/mL)
MIC [17]: 8 µM (≈ 10.1 µg/mL)
MIC [18]: 32 µM (≈ 40.3 µg/mL)
MIC [19]: 8 µM (≈ 10.1 µg/mL)
MIC [20]: 8 µM (≈ 10.1 µg/mL)
MIC (Staphylococcus aureus 75): 4 µM (≈ 5.04 µg/mL)
MIC (Escherichia coli 804): 8 µM (≈ 10.1 µg/mL)
MIC [21]: 32 µM (≈ 40.3 µg/mL)
MIC [22]: 16 µM (≈ 20.2 µg/mL)
MIC [6]: 4 µM (≈ 5.04 µg/mL)
MIC (Escherichia coli 780): 8 µM (≈ 10.1 µg/mL)
MIC [8]: 16 µM (≈ 20.2 µg/mL)
MIC [23]: 2 µM (≈ 2.52 µg/mL)
SMILES: NC(=O)[C@H](Cc1c[nH]c2ccccc12)NC(=O)[C@H](CCCN=C(N)N)NC(=O)[C@H](Cc1c[nH]c2ccccc12)NC(=O)[C@H](Cc1c[nH]c2ccccc12)NC(=O)[C@H](Cc1c[nH]c2ccccc12)NC(=O)[C@H](CCCN=C(N)N)NC(=O)[C@@H](N)Cc1c[nH]c2ccccc12 [WRWWWRW]

Continued, compound first:

SMILES: C[C@@H]1NC(=O)[C@H](C)NC(=O)[C@H](CCCCN)NC(=O)[C@@H](N)CSSC[C@@H](C(=O)O)NC(=O)[C@H](Cc2ccccc2)NC1=O [CKAAFC]
MIC [1]: ≥ 1560 µM
MIC [2]: ≥ 1560 µM

SMILES: C[C@H](NC(=O)[C@H](CCCCN)NC(=O)[C@H](Cc1c[nH]c2ccccc12)NC(=O)[C@H](Cc1c[nH]c2ccccc12)NC(=O)[C@H](Cc1c[nH]c2ccccc12)NC(=O)[C@@H]1CCCN1C(=O)[C@H](CCCCN)NC(=O)[C@H](CCCCN)NC(=O)CN)C(=O)N[C@@H](CCCCN)C(N)=O [GKKPWWWKAK]
MIC [3]: 1.52 µM (≈ 2 µg/mL)
MIC (Bacillus megaterium): 0.761 µM (≈ 0.999 µg/mL)
MIC [4]: 23.8 µM (≈ 31.3 µg/mL)
MIC (Aureobasidium pullulans): 11.9 µM (≈ 15.6 µg/mL)
MIC [5]: 23.8 µM (≈ 31.3 µg/mL)
MIC [6]: 2.97 µM (≈ 3.9 µg/mL)
MIC [7]: ≥ 95.1 µM
MIC [8]: 190 µM (≈ 250 µg/mL)
MIC (Micrococcus luteus): 23.8 µM (≈ 31.3 µg/mL)

SMILES: CC[C@H](C)[C@H](NC(=O)[C@@H](NC(=O)[C@@H](N)CO)C(C)C)C(=O)NCC(=O)N[C@H]1CSSC[C@@H](C(=O)N[C@@H](Cc2ccccc2)C(=O)N[C@H](C(=O)N[C@@H](CCCCN)C(N)=O)C(C)C)NC(=O)[C@@H]2CCCN2C(=O)[C@H](CCCN=C(N)N)NC(=O)[C@@H]2CCCN2C(=O)[C@@H]2CCCN2C(=O)[C@H]([C@@H](C)CC)NC(=O)[C@H](CO)NC(=O)[C@H](Cc2ccccc2)NC(=O)[C@H]([C@@H](C)O)NC(=O)[C@H](Cc2c[nH]c3ccccc23)NC1=O [SVIGCWTFSIPPRPCFVK]
MIC [1]: ≥ 491 µM
MIC [2]: ≥ 491 µM

SMILES: NC(=O)[C@H](Cc1c[nH]c2ccccc12)NC(=O)[C@H](CCCN=C(N)N)NC(=O)[C@H](CCCN=C(N)N)NC(=O)[C@H](Cc1c[nH]c2ccccc12)NC(=O)[C@H](Cc1c[nH]c2ccccc12)NC(=O)[C@H](Cc1c[nH]c2ccccc12)NC(=O)[C@H](CCCN=C(N)N)NC(=O)[C@H](CCCN=C(N)N)NC(=O)[C@@H](N)Cc1c[nH]c2ccccc12 [WRRWWWRRW]
MIC [14]: 8 µM (≈ 12.6 µg/mL)
MIC [15]: 16 µM (≈ 25.2 µg/mL)
MIC [16]: 4 µM (≈ 6.29 µg/mL)
MIC [17]: 16 µM (≈ 25.2 µg/mL)
MIC [18]: 8 µM (≈ 12.6 µg/mL)
MIC [19]: 16 µM (≈ 25.2 µg/mL)
MIC [20]: 4 µM (≈ 6.29 µg/mL)
MIC (Staphylococcus aureus 75): 8 µM (≈ 12.6 µg/mL)
MIC (Escherichia coli 804): ≥ 32 µM
MIC [21]: 16 µM (≈ 25.2 µg/mL)
MIC [22]: 16 µM (≈ 25.2 µg/mL)
MIC [6]: 4 µM (≈ 6.29 µg/mL)
MIC (Escherichia coli 780): 16 µM (≈ 25.2 µg/mL)
MIC [8]: 4 µM (≈ 6.29 µg/mL)
MIC [23]: 2 µM (≈ 3.15 µg/mL)
